Seven cell lines from the supplement of paper PMC10307832 can be followed below.

Common to all, as to assay: relative viability (nuclei count vs DMSO), 5 days (fraction); higher = more cells survive
Compound in assay [1]: CCN1C(=O)C2=CC(=C(N=C2N(C1=O)C3CC3)N)C(=O)N
The procedure, abridged: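 Viability was defined as treated-well nuclei divided by vehicle-well nuclei, with the median taken over replicate plates. Cells from lung cancer lines sat overnight at 37 °C in 1536-well plates, received five √10-spaced library-drug doses by pinning on vehicle-anchored plates, and grew 5 days without medium change before one-step fixation, permeabilisation and Hoechst staining, 4× imaging and MetaXpress nuclear counts. Only plates with control CV under 25% and at least one doubling were kept.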

Compound in assay [2]: CCN1C(=O)C2=CC(=C(N=C2N(C1=O)C3CC3)N)C(=O)N + NC(=O)Nc1cc(-c2cccc(F)c2)sc1C(=O)N[C@H]1CCCNC1 [AZD7762] (partner 0.2 µM)
The gist of the method: (§1)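 Lung cancer cell lines in 1536-well plates got either a single drug or a fixed anchor-drug dose together with five library-drug doses (not always all listed) in √10 steps, by pin tool, on the day after seeding. Nuclei were counted after 5 days, and relative viability is the treated-to-vehicle ratio of nuclei counts. Values are medians of duplicate plates.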

Compound in assay [3]: CCN1C(=O)C2=CC(=C(N=C2N(C1=O)C3CC3)N)C(=O)N + CC(=O)Nc1cccc(-n2c(=O)n(C3CC3)c(=O)c3c(Nc4ccc(I)cc4F)n(C)c(=O)c(C)c32)c1 [Trametinib] (partner 0.02 µM)
The procedure, abridged: as §1

Compound in assay [4]: CCN1C(=O)C2=CC(=C(N=C2N(C1=O)C3CC3)N)C(=O)N + CS(=O)(=O)CCNCc1ccc(-c2ccc3ncnc(Nc4ccc(OCc5cccc(F)c5)c(Cl)c4)c3c2)o1 [Lapatinib] (partner 2 µM)
The gist of the method:
as §1

Compound in assay [5]: CCN1C(=O)C2=CC(=C(N=C2N(C1=O)C3CC3)N)C(=O)N + O=C(CCCCCCC(=O)Nc1ccccc1)NO [Vorinostat] (partner 1 µM)
The gist of the method: as §1

On to NCI-H838, for which the relative viability in assay [1] (0.253 µM) came out at 0.99; in assay [1] (0.8 µM), 0.965; in assay [1] (2.53 µM), 0.923; in assay [1] (8 µM), 0.96; in assay [2] (first compound 0.253 µM), 0.908; in assay [2] (first compound 0.8 µM) it was 0.951. The relative viability in assay [2] (first compound 2.53 µM) came out at 0.961; in assay [2] (first compound 8 µM), 0.908; in assay [3] (first compound 0.253 µM), 0.55; in assay [3] (first compound 0.8 µM) it was 0.573; in assay [3] (first compound 2.53 µM), 0.511; in assay [3] (first compound 8 µM) it was 0.474. The relative viability turned out to be 0.948 in assay [4] (first compound 0.253 µM); 1.02 in assay [4] (first compound 0.8 µM); 0.916 in assay [4] (first compound 2.53 µM); 0.896 in assay [4] (first compound 8 µM); 0.756 in assay [5] (first compound 0.253 µM); 0.694 in assay [5] (first compound 0.8 µM). Moreover, the relative viability was 0.692 in assay [5] (first compound 2.53 µM) and 0.752 in assay [5] (first compound 8 µM).

Consider NCI-H1437, for which the relative viability is 0.982 in assay [1] (0.253 µM); 0.979 in assay [1] (0.8 µM); 0.969 in assay [1] (2.53 µM); 0.972 in assay [1] (8 µM); 1.03 in assay [2] (first compound 0.253 µM); 1.09 in assay [2] (first compound 0.8 µM). Besides, the relative viability turned out to be 1.17 in assay [2] (first compound 2.53 µM); 1.14 in assay [2] (first compound 8 µM); 0.609 in assay [3] (first compound 0.253 µM); 0.468 in assay [3] (first compound 0.8 µM); 0.527 in assay [3] (first compound 2.53 µM); 0.406 in assay [3] (first compound 8 µM). For the same cell line, the relative viability in assay [4] (first compound 0.253 µM) came out at 0.818; in assay [4] (first compound 0.8 µM) it was 0.794; in assay [4] (first compound 2.53 µM), 0.829; in assay [4] (first compound 8 µM) it was 0.838; in assay [5] (first compound 0.253 µM) it was 0.845; in assay [5] (first compound 0.8 µM), 0.804. The relative viability in assay [5] (first compound 2.53 µM) stood at 0.756; in assay [5] (first compound 8 µM) it was 0.808.

On to HCC-44, for which the relative viability in assay [1] (0.253 µM) came out at 1.01; in assay [1] (0.8 µM), 0.958; in assay [1] (2.53 µM) it was 1.03; in assay [1] (8 µM), 0.972; in assay [2] (first compound 0.253 µM), 1.03; in assay [2] (first compound 0.8 µM) it was 0.993. The relative viability in assay [2] (first compound 2.53 µM) was determined as 0.977; in assay [2] (first compound 8 µM), 0.991; in assay [3] (first compound 0.253 µM) it was 1.18; in assay [3] (first compound 0.8 µM), 0.975; in assay [3] (first compound 2.53 µM) it was 1.06; in assay [3] (first compound 8 µM) it was 1.04. Moreover, the relative viability in assay [4] (first compound 0.253 µM) came out at 0.927; in assay [4] (first compound 0.8 µM) it was 1.01; in assay [4] (first compound 2.53 µM), 1.03; in assay [4] (first compound 8 µM) it was 0.986; in assay [5] (first compound 0.253 µM), 1.13; in assay [5] (first compound 0.8 µM) it was 1.05. Besides, the relative viability in assay [5] (first compound 2.53 µM) was 1.06; in assay [5] (first compound 8 µM), 1.04.

Consider EPLC-272H, for which the relative viability is 0.891 in assay [1] (0.253 µM); 0.863 in assay [1] (0.8 µM); 0.999 in assay [1] (2.53 µM); 1.09 in assay [1] (8 µM); 0.229 in assay [2] (first compound 0.253 µM); 0.206 in assay [2] (first compound 0.8 µM). Further, the relative viability in assay [2] (first compound 2.53 µM) amounted to 0.278; in assay [2] (first compound 8 µM) it was 0.193; in assay [3] (first compound 0.253 µM), 0.261; in assay [3] (first compound 0.8 µM), 0.239; in assay [3] (first compound 2.53 µM), 0.327; in assay [3] (first compound 8 µM), 0.298. The relative viability in assay [4] (first compound 0.253 µM) amounted to 0.834; in assay [4] (first compound 0.8 µM) it was 0.867; in assay [4] (first compound 2.53 µM) it was 0.932; in assay [4] (first compound 8 µM), 1.13; in assay [5] (first compound 0.8 µM) it was 0.538; in assay [5] (first compound 2.53 µM) it was 0.411. In addition, in assay [5] (first compound 8 µM), the relative viability worked out at 0.477.

For NCI-H358, the relative viability was found to be 1.05 in assay [1] (0.253 µM); 0.913 in assay [1] (0.8 µM); 0.924 in assay [1] (2.53 µM); 0.954 in assay [1] (8 µM); 0.535 in assay [2] (first compound 0.253 µM); 0.536 in assay [2] (first compound 0.8 µM). The relative viability in assay [2] (first compound 2.53 µM) turned out to be 0.552; in assay [2] (first compound 8 µM), 0.564; in assay [3] (first compound 0.253 µM) it was 0.121; in assay [3] (first compound 0.8 µM), 0.134; in assay [3] (first compound 2.53 µM), 0.144; in assay [3] (first compound 8 µM) it was 0.138. In addition, the relative viability in assay [4] (first compound 0.253 µM) is 0.424; in assay [4] (first compound 0.8 µM), 0.417; in assay [4] (first compound 2.53 µM) it was 0.526; in assay [4] (first compound 8 µM) it was 0.612; in assay [5] (first compound 0.253 µM), 0.788; in assay [5] (first compound 0.8 µM), 0.625. The relative viability in assay [5] (first compound 2.53 µM) is 0.628; in assay [5] (first compound 8 µM) it was 0.863.

As for NCI-H647, the relative viability turned out to be 1.02 in assay [1] (0.253 µM); 0.896 in assay [1] (0.8 µM); 0.993 in assay [1] (2.53 µM); 0.924 in assay [1] (8 µM); 0.537 in assay [2] (first compound 0.253 µM); 0.547 in assay [2] (first compound 2.53 µM). Further, the relative viability in assay [2] (first compound 8 µM) amounted to 0.581; in assay [3] (first compound 0.253 µM), 0.521; in assay [3] (first compound 0.8 µM), 0.442; in assay [3] (first compound 2.53 µM), 0.418; in assay [3] (first compound 8 µM), 0.389; in assay [4] (first compound 0.253 µM) it was 1.09. Further, the relative viability in assay [4] (first compound 0.8 µM) is 1.13; in assay [4] (first compound 2.53 µM), 0.992; in assay [4] (first compound 8 µM) it was 1.13; in assay [5] (first compound 0.253 µM), 0.448; in assay [5] (first compound 0.8 µM) it was 0.477; in assay [5] (first compound 2.53 µM), 0.557. Moreover, in assay [5] (first compound 8 µM), the relative viability came out at 0.862.

As for NCI-H322M, the relative viability in assay [1] (0.253 µM) is 0.959; in assay [1] (0.8 µM) it was 0.929; in assay [1] (2.53 µM), 0.984; in assay [1] (8 µM), 0.996; in assay [2] (first compound 0.253 µM), 0.611; in assay [2] (first compound 0.8 µM), 0.548. Besides, the relative viability came to 0.551 in assay [2] (first compound 2.53 µM); 0.599 in assay [2] (first compound 8 µM); 0.522 in assay [3] (first compound 0.253 µM); 0.457 in assay [3] (first compound 0.8 µM); 0.469 in assay [3] (first compound 2.53 µM); 0.586 in assay [3] (first compound 8 µM). In addition, the relative viability in assay [4] (first compound 0.253 µM) was determined as 0.585; in assay [4] (first compound 0.8 µM), 0.536; in assay [4] (first compound 2.53 µM) it was 0.562; in assay [4] (first compound 8 µM) it was 0.592; in assay [5] (first compound 0.253 µM), 1.04; in assay [5] (first compound 0.8 µM), 0.758. In addition, the values for the relative viability in assay [5] (first compound 2.53 µM) and in assay [5] (first compound 8 µM) were 1.04 and 0.931, respectively.
